# Patent US20210052701A1, “Methods of Treating Vascular Leakage Using CXCL12 Peptides” (The Medical College of Wisconsin, Inc., priority 2018, published 2021)
# Entries after “also recorded” stand apart in the source; their conditions may differ.
# Columns and labels:
# [1] = system: animal model of acute respiratory distress syndrome (ARDS); assay: Animal model of ARDS: lung ischemia reperfusion injury plus hemorrhage (P:F ratio, lung injury score); type: in vivo, Sprague-Dawley rats
# Procedure: Animals underwent 70 min of […] lung ischemia for 70 min plus hemorrhage to a MAP of 40 mmHg for the last 30 min of ischemia, followed by fluid resuscitation to a MAP of 60 mmHg until t=300 min. Arrow: drug injection. Dashed lines indicate the P:F ratio (mmHg) threshold values for the diagnosis of mild, moderate and severe ARDS. Vehicle: n=5. CXCL12: n=3. CXCL12: n=4. CXCL12-LM: n=3, CXCL12-LD: n=4. CXCL12 K27A/R41A/R47A: n=3. LI+HEM: lung ischemia reperfusion injury plus hemorrhage. Data are mean±SEM. *: p<0.05 vs. vehicle (2-way ANOVA/Dunnett's multiple comparisons test).
# FIGS. 12A-12C show lung histology after treatment with CXCL12 and engineered CXCR4 agonists A. Lung specimens were placed in formalin fixative solution and were then embedded in paraffin wax, sliced into 5 μm sections and stained with H&E. Representative images from H&E stained lung sections from animals after vehicle (left) and CXCL12 ([…], right treatment. B/C. Lung injury scores (B. uninjured (left) lung; C. injured (right) lung). Data are median±interquartile ranges. Data were analyzed with the Kruskal Wallis test with Dunn's multiple comparisons test. The level of statistical significance (p) vs. ctrl. (vehicle treatment) indicated.
# We tested therapeutic efficacy of wild-type CXCL12, CXXL12-locked dimer (LD), CXCL12-locked monomer (LM) and the triple mutant CXCL12 K27A/R41A/R47A in an animal model of acute respiratory distress syndrome (ARDS) (FIG. 11). All drugs were injected in a dose of 0.14 μmol/kg. Male Sprague-Dawley rats were anesthetized, orotracheally intubated, instrumented with arterial/venous catheters, and mechanically ventilated (PEEP 2 mmHg, FiO2 1.0). After a right lateral thoracotomy, a suture was tied around the hilum of the right lung. Animals underwent 70 min of right lung ischemia plus hemorrhage to a mean arterial blood pressure (MAP) of 40 mmHg for the last 30 min of lung ischemia. At t=70 min, the suture was removed, animals were ventilated with FiO2 1.0, PEEP 5 mmHg and resuscitated with crystalloids to a MAP of 60 mmHg until t=300 min. Vehicle and drugs were injected i.v. within 10 min after reperfusion.
# We further evaluated histomorphology of the lungs from animals treated with vehicle, wild-type CXCL12, CXCL12-LD and CXCXL12-LM utilizing a standardized lung injury score. Lung slides stained with hematoxylin and eosin were examined under a light microscope by 4 investigators blinded to the identity of the specimens. The lung injury score was assessed as previously described/. In brief each investigator rendered a score of 0 (no damage) to 4+(maximal damage) based on an injury grading scale composed of six criteria. The slides were assessed for the extent of alveolar congestion, hemorrhage and edema, as well as alveolar and vessel wall PMN infiltration and alveolar wall thickness. […] Lung injury scores of the uninjured and injured lungs from animals treated with vehicle, wild-type CXCL12, CXCL12-LD and CXCXL12-LM are shown in FIGS. […], respectively.
# HULEC-5a = assay: Effects of CXCL12 and ubiquitin on thrombin-induced impairment of HULEC-5a monolayer permeability; type: cell-based, human; details: thrombin 50 nM, after 10 min 50 nM ligand
# Procedure: FIGS. 4A-4D show effects of CXCL12 and ubiquitin on thrombin-induced impairment of HULEC-5a monolayer permeability. (A) HULEC-5a were grown to a confluent monolayer on collagen-coated permeable membranes and then exposed to different concentration of thrombin for 10 min, followed by the addition of FITC-dextran. Endothelial permeability was assessed by measuring the amount of FITC-dextran that permeated through the cell monolayer. No cells: 100% permeability. RFU: Relative fluorescence units. N=3 in quadruplicate. (B) Dose-response curves for thrombin-induced permeability, data from A. 100% permeability=permeability in the absence of HULEC-5a. Open squares: Permeability at t=55 min. Light grey squares: Permeability at t=135 min. Dark grey squares: Permeability at t=255 min. […] Endothelial permeability was assessed by measuring the amount of FITC-dextran that permeated through the cell monolayer. RFU: Relative fluorescence units. […]
# In vitro vascular permeability assays—Permeability assays were obtained from Millipore (ECM642) and performed as per manufacturer's instructions. […] Fluorescein isothiocyanate (FITC)-dextran (20 μg/mL) was then added on top of the monolayer and the amount of FITC-dextran that permeated through the monolayer was quantified by measuring fluorescence in a Synergy 2 Multi-mode Microplate Reader (BioTek, Winooski, Vt.) at various time points over a 255 min time period.
# CXCR4 = biological target: T1, CXCR4 (Homo sapiens, UniProt P61073); assay: Presto-Tango β-arrestin 2 recruitment assay for CXCR4; type: cell-based
# T1 construct: host or cells: HTLA cells (HEK293 line stably expressing a tTA-dependent luciferase reporter and a β-arrestin2-TEV fusion gene)
# Procedure: FIGS. 6A-6F show Presto-Tango β-arrestin 2 recruitment assays for CXCR4 (A-C) and ACKR3 (D-F). RLU %: % of the luminescence signal for 1 μM CXCL12α. N=9 for CXCL12a and n=3 for all other proteins.
# Presto-Tango β-arrestin 2 recruitment assay—The PRESTO-Tango (parallel receptorome expression and screening via transcriptional out-put, with transcriptional activation following arrestin translocation) assay was performed as recently described. The Tango plasmids were a gift from Dr. Bryan Roth (all from Addgene). HTLA cells (2.5×10^5/well) were seeded in a 6-well plate and transfected with 1.5 μg of the Tango plasmids using Lipofectamine 3000 (ThermoScientific). The following day, transfected HTLA cells (1×10^5 cells/well) were plated onto Poly-L-Lysine pre-coated 96-well micro-plates and allowed to attach to the plate surface for at least 4 hours prior to treatment. Proteins used for treatment were prepared in twice the final concentration in culture media, added at a 1:1 vol/vol ratio and incubated overnight at 37° C., 5% CO2 in a humidified environment. The following morning, media was removed from cell culture plates and replaced with a 100 μL 1:5 mixture of Bright-Glo (Promega) and 1×HBSS, 20 mM HEPES solution. Plates were then incubated at room temperature before measuring luminescence on a Biotek Synergy II plate reader.
# T1 sequence (P61073 whole entry, the tested form may be a part): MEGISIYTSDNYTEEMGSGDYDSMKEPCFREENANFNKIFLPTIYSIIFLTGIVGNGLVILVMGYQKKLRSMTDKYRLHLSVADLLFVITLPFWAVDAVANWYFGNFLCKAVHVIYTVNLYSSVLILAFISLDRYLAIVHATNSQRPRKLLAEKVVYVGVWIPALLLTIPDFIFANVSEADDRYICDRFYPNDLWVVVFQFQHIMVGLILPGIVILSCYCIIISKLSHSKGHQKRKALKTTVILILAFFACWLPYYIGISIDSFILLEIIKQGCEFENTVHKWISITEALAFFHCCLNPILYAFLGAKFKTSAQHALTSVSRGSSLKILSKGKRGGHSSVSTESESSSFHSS
substance,measurement,setting,value
"CXCL12: Wild-type CXCL12 (SEQ ID NO:1), cognate agonist of CXCR4 and ACKR3",development of ARDS (P:F ratio),"[1]; 0.14 μmol/kg i.v. within 10 min after reperfusion, until t=300 min",development of ARDS was delayed and attenuated
same,time at which criteria for mild ARDS were fulfilled,"[1]; 0.14 μmol/kg i.v., P:F ratio<300 mmHg",300 min
same,P:F ratios compared with vehicle treated animals,"[1]; 0.14 μmol/kg i.v., t=90-240 min",significantly higher
same,"histological signs of lung injury, injured lung (lung injury score)","[1]; H&E sections, vs. vehicle",significantly reduced
same,effect on thrombin-mediated impairment of HULEC-5a barrier function when added after thrombin,HULEC-5a,significantly reduced thrombin-mediated impairment of endothelial cell barrier function; also recorded: less efficacious in HULEC-5a cells than in hPPAEC
same,"potency (EC50) to recruit β-arrestin 2 to CXCR4, compared with CXCL12α",CXCR4,no statistically significant differences
